Measured values reported in article PMC10266040 (Proceedings of the National Academy of Sciences of the …, 2023).
Changes are numbered by the printed parent chain.

Tests used:
ETR1 [1] = biological target: T1, ETR1 (Arabidopsis thaliana, UniProt P49333, K91M); assay: saturable […]ethylene radioligand binding to yeast expressing the mutant
T1 sequence (P49333 1-738 K91M): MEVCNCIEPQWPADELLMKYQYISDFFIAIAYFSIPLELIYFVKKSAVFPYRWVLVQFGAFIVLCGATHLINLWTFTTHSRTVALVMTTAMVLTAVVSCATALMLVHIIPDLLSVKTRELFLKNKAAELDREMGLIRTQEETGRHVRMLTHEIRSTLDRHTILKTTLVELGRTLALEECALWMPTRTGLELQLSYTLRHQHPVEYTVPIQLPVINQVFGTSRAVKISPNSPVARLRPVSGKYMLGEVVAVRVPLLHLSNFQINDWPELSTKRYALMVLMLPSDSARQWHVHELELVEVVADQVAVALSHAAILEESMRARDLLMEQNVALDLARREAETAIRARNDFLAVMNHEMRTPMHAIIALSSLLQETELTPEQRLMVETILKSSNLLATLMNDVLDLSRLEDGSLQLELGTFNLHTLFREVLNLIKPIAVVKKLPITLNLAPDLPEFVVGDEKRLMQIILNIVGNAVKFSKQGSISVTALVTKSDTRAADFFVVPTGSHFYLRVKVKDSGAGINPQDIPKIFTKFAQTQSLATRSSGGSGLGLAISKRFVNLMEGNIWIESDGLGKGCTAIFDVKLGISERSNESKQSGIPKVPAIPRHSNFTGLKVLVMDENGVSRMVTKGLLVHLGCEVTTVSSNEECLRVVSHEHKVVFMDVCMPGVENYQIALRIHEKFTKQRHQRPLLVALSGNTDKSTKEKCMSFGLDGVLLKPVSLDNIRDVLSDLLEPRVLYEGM

ETR1 [2] = biological target: T2, ETR1 (Arabidopsis thaliana, UniProt P49333, K91R); assay: as above
T2 sequence (P49333 1-738 K91R): T1 sequence (P49333 1-738 K91M) with M91R

C=C [ethylene]
% of wildtype binding (ETR1 [1]): ~ 6 % of wildtype binding
% of wildtype binding (ETR1 [2]): 63 % of wildtype binding
